# Columns and labels:
# [1] = test system: morningglory; test: Test B pre/postemergence morningglory; format: in vivo, Ipomoea hederacea
# Outline: (§1)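 Test chemicals in a non-phytotoxic solvent mixture with surfactant were sprayed preemergence onto planted seeds and postemergence onto plants 2 to 18 cm tall (1- to 4-leaf stage). After twelve to sixteen days in a greenhouse, injury was visually rated against untreated controls from 0 (no effect) to 10 (complete control).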
# [2] = test system: smallflower flatsedge; test: Test B flood test smallflower flatsedge; format: in vivo, Cyperus difformis
# Outline: (§2)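 Read-out is a visual response score from 0 (no effect) to 10 (complete control), assigned by comparison with untreated controls. Treatment was applied at the 2-leaf stage, and plants stayed in the greenhouse for twelve to sixteen days before scoring.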
# [3] = test system: surinam grass; test: Test B pre/postemergence surinam grass; format: in vivo, Brachiaria decumbens
# Outline: as §1
# [4] = test system: duck salad; test: Test B flood test duck salad; format: in vivo, Heteranthera limosa
# Outline: as §2
# [5] = test system: soybean; test: Test B pre/postemergence soybean; format: in vivo, Glycine max
# Outline: as §1
# [6] = test system: bedstraw; test: Test B pre/postemergence bedstraw; format: in vivo, Galium aparine; details: Postemergence
# Outline: as §1
# [7] = test system: corn; test: Test B pre/postemergence corn; format: in vivo, Zea mays
# Outline: as §1
# [8] = test system: crabgrass; test: Test B pre/postemergence crabgrass; format: in vivo, Digitaria sanguinalis
# Outline: as §1
# [9] = test system: rice; test: Test B flood test rice; format: in vivo, Oryza sativa
# Outline: as §2
# [10] = test system: pigweed; test: Test B pre/postemergence pigweed; format: in vivo, Amaranthus retroflexus
# Outline: as §1
# [11] = test system: wild oat; test: Test B pre/postemergence wild oat; format: in vivo, Avena fatua
# Outline: as §1
# [12] = test system: sugar beet; test: Test B pre/postemergence sugar beet; format: in vivo, Beta vulgaris
# Outline: as §1
# [13] = test system: velvetleaf; test: Test B pre/postemergence velvetleaf; format: in vivo, Abutilon theophrasti
# Outline: as §1
# [14] = test system: bamyardgrass; test: Test B flood test barnyardgrass; format: in vivo, Echinochloa crus-galli
# Outline: as §2
# [15] = test system: cocklebur; test: Test B pre/postemergence cocklebur; format: in vivo, Xanthium strumarium
# Outline: as §1
# [16] = test system: rape; test: Test B pre/postemergence rape; format: in vivo, Brassica napus
# Outline: as §1
# [17] = Postemergence, Rate 250 g/ha, scale 0 to 10
# [18] = Postemergence, Rate 500 g/ha, scale of 0 to 10 where 0 is no effect and 10 is complete control
# [19] = Preemergence, Rate 62 g/ha, scale 0 to 10 (0 no effect, 10 complete control)
# [20] = Preemergence, Rate 125 g/ha, scale of 0 to 10 where 0 is no effect and 10 is complete control
# [21] = Preemergence, Rate 250 g/ha, scale 0 to 10, 0 is no effect, 10 is complete control
# [22] = Preemergence, Rate 500 g/ha, scale 0 to 10, 0 is no effect, 10 is complete control
# [23] = Rate 125 g/ha, Postemergence, scale 0 to 10, 0 is no effect, 10 is complete control
# [24] = Postemergence block (flood test species), Rate 250 g/ha, scale 0 to 10
# [25] = Postemergence section (flood test species), Rate 500 g/ha, scale of 0 to 10 where 0 is no effect and 10 is complete control
# [26] = Rate 125 g/ha, Postemergence section (flood test species), scale 0 to 10, 0 is no effect, 10 is complete control
# [27] = Rate 62 g/ha, Postemergence, scale of 0 to 10 where 0 is no effect and 10 is complete control
# [28] = Rate 62 g/ha, Postemergence (flood test species), scale of 0 to 10 where 0 is no effect and 10 is complete control
smiles,measurement,setting,value
CC(C)N(C(=O)n1oc(=O)n(C[Si](C)(C)c2ccccc2)c1=O)c1ccc(Cl)cc1 [Compound 424],Morningglory plant response rating,[1]; [17],0
same,Morningglory plant response rating,[1]; [18],1
same,"Plant response rating, Morningglory",[1]; [19],0
same,"Plant response rating, Morningglory",[1]; [20],0
same,Morningglory plant response rating,[1]; [21],0
same,Morningglory plant response rating,[1]; [22],0
same,Morningglory plant response rating,[1]; [23],0
same,S. Flatsedge plant response rating,[2]; [24],0
same,S. Flatsedge plant response rating,[2]; [25],0
same,S. Flatsedge plant response rating,[2]; [26],0
same,B. signalgrass plant response rating,"[3]; Postemergence, Rate 250 g/ha, scale 0 to 10, 0 no effect, 10 complete control",0
same,B. signalgrass plant response rating,[3]; [18],0
same,"Plant response rating, B. signalgrass",[3]; [19],0
same,"Plant response rating, B. signalgrass",[3]; [20],0
same,B. signalgrass plant response rating,"[3]; Preemergence, Rate 250 g/ha, scale of 0 to 10 where 0 is no effect and 10 is complete control",0
same,B. signalgrass plant response rating,"[3]; Preemergence, Rate 500 g/ha, scale of 0 to 10 where 0 is no effect and 10 is complete control",0
same,B. signalgrass plant response rating,[3]; [27],0
same,B. signalgrass plant response rating,[3]; [23],0
same,Ducksalad plant response rating,[4]; [24],0
same,Ducksalad plant response rating,[4]; [25],0
same,Ducksalad plant response rating,[4]; [28],0
same,Ducksalad plant response rating,[4]; [26],0
same,Soybean plant response rating,[5]; [17],1
same,Soybean plant response rating,[5]; [18],2
same,"Plant response rating, Soybean",[5]; [19],0
same,"Plant response rating, Soybean",[5]; [20],0
same,Soybean plant response rating,[5]; [21],0
same,Soybean plant response rating,[5]; [22],0
same,Soybean plant response rating,[5]; [23],0
same,Bedstraw plant response rating,"[6]; Rate 250 g/ha, scale 0 to 10",0
same,Bedstraw plant response rating,"[6]; Rate 500 g/ha, scale of 0 to 10 where 0 is no effect and 10 is complete control",0
same,Bedstraw plant response rating,"[6]; Rate 62 g/ha, scale of 0 to 10 where 0 is no effect and 10 is complete control",0
same,Bedstraw plant response rating,"[6]; Rate 125 g/ha, scale 0 to 10, 0 is no effect, 10 is complete control",0
same,Corn plant response rating,[7]; [17],0
same,Corn plant response rating,[7]; [18],0
same,"Plant response rating, Corn",[7]; [19],0
same,"Plant response rating, Corn",[7]; [20],0
same,Corn plant response rating,[7]; [21],0
same,Corn plant response rating,[7]; [22],0
same,Corn plant response rating,[7]; [27],0
same,Corn plant response rating,[7]; [23],0
same,Crabgrass plant response rating,[8]; [17],0
same,Crabgrass plant response rating,[8]; [18],0
same,"Plant response rating, Crabgrass",[8]; [19],0
same,"Plant response rating, Crabgrass",[8]; [20],0
same,Crabgrass plant response rating,[8]; [21],0
same,Crabgrass plant response rating,[8]; [22],0
same,Crabgrass plant response rating,[8]; [27],0
same,Crabgrass plant response rating,[8]; [23],0
same,Rice plant response rating,[9]; [24],0
same,Rice plant response rating,[9]; [25],0
same,Rice plant response rating,[9]; [26],0
same,Redroot pigweed plant response rating,[10]; [17],0
same,Redroot pigweed plant response rating,[10]; [18],0
same,"Plant response rating, Redroot pigweed",[10]; [19],0
same,"Plant response rating, Redroot pigweed",[10]; [20],0
same,Redroot pigweed plant response rating,[10]; [21],0
same,Redroot pigweed plant response rating,[10]; [22],0
same,Redroot pigweed plant response rating,[10]; [23],0
same,Wild oats plant response rating,[11]; [17],0
same,Wild oats plant response rating,[11]; [18],0
same,"Plant response rating, Wild oats",[11]; [19],0
same,"Plant response rating, Wild oats",[11]; [20],0
same,Wild oats plant response rating,[11]; [21],0
same,Wild oats plant response rating,[11]; [22],0
same,Wild oats plant response rating,[11]; [23],0
same,Sugarbeets plant response rating,[12]; [17],0
same,Sugarbeets plant response rating,[12]; [18],0
same,"Plant response rating, Sugarbeets",[12]; [19],0
same,"Plant response rating, Sugarbeets",[12]; [20],0
same,Sugarbeets plant response rating,[12]; [21],0
same,Sugarbeets plant response rating,[12]; [22],0
same,Sugarbeets plant response rating,[12]; [23],0
same,Velvetleaf plant response rating,[13]; [17],0
same,Velvetleaf plant response rating,[13]; [18],0
same,"Plant response rating, Velvetleaf",[13]; [19],0
same,"Plant response rating, Velvetleaf",[13]; [20],0
same,Velvetleaf plant response rating,[13]; [21],0
same,Velvetleaf plant response rating,[13]; [22],0
same,Velvetleaf plant response rating,[13]; [23],0
same,Barnyardgrass plant response rating,[14]; [24],0
same,Barnyardgrass plant response rating,[14]; [25],0
same,Barnyardgrass plant response rating,[14]; [28],0
same,Barnyardgrass plant response rating,[14]; [26],0
same,Cocklebur plant response rating,[15]; [17],0
same,Cocklebur plant response rating,[15]; [18],0
same,"Plant response rating, Cocklebur",[15]; [19],0
same,"Plant response rating, Cocklebur",[15]; [20],0
same,Cocklebur plant response rating,[15]; [21],0
same,Cocklebur plant response rating,[15]; [22],0
same,Cocklebur plant response rating,[15]; [27],0
same,Cocklebur plant response rating,[15]; [23],0
same,Rape plant response rating,[16]; [17],0
same,Rape plant response rating,[16]; [18],0
same,"Plant response rating, Rape",[16]; [19],0
same,"Plant response rating, Rape",[16]; [20],0
same,Rape plant response rating,[16]; [21],0
same,Rape plant response rating,[16]; [22],0
same,Rape plant response rating,[16]; [23],0
